Measurements published in PubChem BioAssay (NCI).
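Where inhibition never reached the appropriate level, the endpoint shown equals the highest concentration tested. Otherwise, values were interpolated linearly from a five-concentration, 48-hour dose response in 96-well plates. GI50: concentration for 50% inhibition of growth. TGI is the concentration that stops growth completely.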

Legend:
Assay in all cases: inhibition of tumour cell growth, NCI panel, 48 h
A549 NSCLC = test system: A549 NSCLC
HCT-116 colon = test system: HCT-116 colon
K-562 leukemia = test system: K-562 leukemia
M14 melanoma = test system: M14 melanoma
NCI-H522 lung = test system: NCI-H522 lung
SF-268 CNS = test system: SF-268 CNS
SK-MEL-28 melanoma = test system: SK-MEL-28 melanoma
TK-10 renal = test system: TK-10 renal
UACC-257 melanoma = test system: UACC-257 melanoma
UO-31 renal = test system: UO-31 renal

Compound | GI50 (A549 NSCLC) [µM] | TGI (A549 NSCLC) [µM] | GI50 (HCT-116 colon) [µM] | TGI (HCT-116 colon) [µM] | GI50 (K-562 leukemia) [µM] | TGI (K-562 leukemia) [µM] | GI50 (M14 melanoma) [µM] | TGI (M14 melanoma) [µM] | TGI (NCI-H522 lung) [µM] | GI50 (SF-268 CNS) [µM] | TGI (SF-268 CNS) [µM] | GI50 (SK-MEL-28 melanoma) [µM] | TGI (SK-MEL-28 melanoma) [µM] | GI50 (TK-10 renal) [µM] | TGI (TK-10 renal) [µM] | GI50 (UACC-257 melanoma) [µM] | TGI (UACC-257 melanoma) [µM] | GI50 (UO-31 renal) [µM] | TGI (UO-31 renal) [µM] | GI50 (NCI-H522 lung) [µM]
C[C@@]1([C@H](OC(=O)c2cccc3ccccc23)C(N)=O)CO1 | 2.12 | > 20.7 | 0.368 | 8.43 | 1.13 | > 37.5 | 1.36 | 5.31 | 6 | 4.62 | > 43 | 3.08 | 15.2 | 3.6 | 14.8 | 4.65 | > 49 | 2.25 | 8.8 | 
COc1ccc(/C=C(/C(=O)N2CCN(c3ccc(C)cc3)CC2)c2cc(OC)c(OC)c(OC)c2)cc1N | 0.426 | > 100 | 0.254 | > 32.9 | 0.222 | > 100 | 0.247 | 2.48 | > 100 | 0.43 | > 100 | 0.54 | > 100 | 4.77 | > 100 | > 87.3 | > 100 | 0.242 | > 35.3 | 0.168
CCN(CC)c1ccc(CNc2cc(C)nc3ccc(OC)cc23)cc1 | 6.41 | 21.2 | 2.34 | 7.76 | 1.37 | 4.34 | 1.89 | 3.7 | 3.28 | 4.17 | 16.1 | 1.86 | 3.38 | 1.92 | 4.64 | 2.14 | 4.53 | 1.75 | 6.23 | 1.51
COc1ccc(C(=C(C#N)C#N)c2ccc(OC)cc2)cc1 |  | > 100 |  | > 100 |  | > 100 |  | > 100 | > 100 |  | > 100 |  | > 100 |  | > 100 |  | > 100 |  | > 100 | 
CC[C@@]1(O)C(=O)OCc2c1cc1n(c2=O)Cc2cc3c([N+](=O)[O-])c(O)ccc3nc2-1 | 0.426 | 18.3 | 0.431 | 7.11 | 0.84 | > 100 | 0.188 | 2.47 | 3.07 | 0.073 | > 22.3 | 2.75 | 35.5 | 19.5 | > 85.6 | 1.19 | 16 | 0.303 | 2.3 | 0.132
CC/C=C\C[C@H](O)C/C=C1/C(=O)C=C[C@@H]1C/C=C\CCCC(=O)OCCS(=O)(=O)c1ccccc1 | 6.04 | 25.8 | 2.35 | 5.06 | 3.04 | 63.8 | 3.67 | 13.7 | 4.13 | 4.37 | 22.9 | 2.72 | 8.02 | 5.58 | 17.3 | 4.54 | 17.3 | 2.37 | 6.31 | 1.76
COc1cccc(-c2cc(C(=O)Nc3ccc(Cl)cc3)nc(N)n2)c1 |  | > 100 |  | > 100 |  | > 100 |  | > 100 | > 100 |  | > 100 |  | > 100 |  | > 100 |  | > 100 |  | > 100 | 
